The record followed here is ChEMBL document CHEMBL1201862, “PubChem BioAssay data set” (2004).

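Briefly, cells in 96-well plates were exposed to five compound concentrations for 48 h, and endpoints were estimated by linear interpolation. GI50 is the concentration that inhibits growth by half.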 Active and inactive are the calls of the source. Rule as the data show it: active = GI50 up to about 1.1 µM and inactive = higher.

Test systems include A498; A549; EKVX; HL-60; IGROV-1; KM12; M14; MCF7; MDA-MB-231; NCI-H460; NCI/ADR-RES; OVCAR-3; OVCAR-4; OVCAR-5; RPMI-8226; RXF 393; SK-MEL-28; SK-OV-3; BT-549; SK-MEL-2.
Common to all, as to experiment: NCI-60 cell line screen, 48 h

For `O=C(OCc1c(-c2ccccc2)nn(-c2ccccc2)c1COC(=O)Oc1ccccc1)Oc1ccccc1`, the GI50 with A498, in the assay on A549, in the assay with EKVX, in the assay with HL-60, in the assay on IGROV-1 and with KM12 was > 100 µM (inactive) throughout. Besides, the GI50 with M14, with MCF7, with MDA-MB-231, with NCI-H460, with NCI/ADR-RES and in the assay on OVCAR-3 was > 100 µM (inactive) each time. The GI50 in the assay with OVCAR-4, in the assay with OVCAR-5, in the assay on RPMI-8226, in the assay on RXF 393, in the assay with SK-MEL-28 and with SK-OV-3 was > 100 µM (inactive) throughout.

With `Cc1ccc(SC[C@@]2(C(F)F)NC(=O)NC2=O)cc1`, the GI50 in the assay on A498, in the assay with A549, in the assay with BT-549, in the assay on EKVX, with HL-60 and in the assay on IGROV-1 was > 100 µM (inactive) each time. Moreover, the GI50 in the assay on KM12, in the assay with M14, in the assay with MDA-MB-231, in the assay on NCI-H460, in the assay on NCI/ADR-RES and with OVCAR-3 was > 100 µM (inactive) in each case. For the same compound, the GI50 in the assay with OVCAR-4, with OVCAR-5, in the assay with RPMI-8226, with RXF 393, in the assay on SK-MEL-28 and with SK-MEL-2 was > 100 µM (inactive) throughout. The GI50 with SK-OV-3 is > 100 µM (inactive).

As to `O=C1/C(=C2/CCCN2)C(c2ccc[nH]2)=NN1c1ccccc1`, the GI50 in the assay with A498, with A549, in the assay on BT-549, in the assay with EKVX, in the assay on HL-60 and in the assay with KM12 was > 100 µM (inactive) in each case. The GI50 in the assay with M14, in the assay on MDA-MB-231, with NCI-H460, with NCI/ADR-RES, in the assay with OVCAR-3 and in the assay on OVCAR-4 was > 100 µM (inactive) throughout. Further, the GI50 in the assay with OVCAR-5, in the assay with RPMI-8226, in the assay on RXF 393, in the assay with SK-MEL-28, with SK-MEL-2 and with SK-OV-3 was > 100 µM (inactive) in each case.

For `O=C(Sc1c(-c2ccccc2)c(=O)n(-c2ccccc2)c(=S)n1-c1ccccc1)c1ccccc1`, the GI50 in the assay with A549 was > 100 µM (inactive); in the assay on BT-549, 56.1 µM (inactive); in the assay on EKVX, > 100 µM (inactive); in the assay with HL-60 it was 33.2 µM (inactive); in the assay on IGROV-1 it was > 100 µM (inactive); with KM12, > 100 µM (inactive). Also, the GI50 in the assay with M14 is 61.1 µM (inactive); in the assay with MCF7, 51.6 µM (inactive); in the assay with NCI-H460, > 100 µM (inactive); in the assay with NCI/ADR-RES it was 75 µM (inactive); with OVCAR-3 it was > 100 µM (inactive); in the assay on OVCAR-4, > 100 µM (inactive). Further, the GI50 in the assay on OVCAR-5 is > 100 µM (inactive); in the assay with RPMI-8226 it was 41.8 µM (inactive); with SK-MEL-28, > 100 µM (inactive); in the assay on SK-MEL-2, > 100 µM (inactive); in the assay with SK-OV-3, > 100 µM (inactive).

Regarding `C=CCOCn1cc(F)c(=O)[nH]c1=O`, the GI50 in the assay with A498, with A549, in the assay on BT-549, in the assay on EKVX, with HL-60 and with IGROV-1 was > 100 µM (inactive) throughout. Moreover, the GI50 in the assay on KM12, in the assay on M14, with MCF7, with MDA-MB-231, with NCI-H460 and in the assay on RPMI-8226 was > 100 µM (inactive) each time. In addition, the GI50 in the assay on SK-MEL-28 and in the assay on SK-OV-3 was > 100 µM (inactive) in each case.

In the case of `C=CCn1c(-c2ccc(Cl)cc2)cs/c1=N\c1ccccc1OC`, the GI50 with A498 was > 100 µM (inactive); with A549 it was 33 µM (inactive); with BT-549 it was > 52.5 µM (inactive); in the assay with HL-60 it was 14.9 µM (inactive); in the assay with IGROV-1 it was > 100 µM (inactive); in the assay with KM12 it was 15.8 µM (inactive). The GI50 in the assay with M14 is 10.1 µM (inactive); in the assay on MCF7 it was 27.4 µM (inactive); in the assay with NCI-H460, 36 µM (inactive); in the assay on NCI/ADR-RES it was 6.5 µM (inactive); with OVCAR-3 it was 40.8 µM (inactive); in the assay with OVCAR-4 it was > 58.5 µM (inactive). In addition, the GI50 was > 59.3 µM (inactive) in the assay with OVCAR-5; 5.6 µM (inactive) with RPMI-8226; > 100 µM (inactive) with RXF 393; > 47.2 µM (inactive) with SK-MEL-28; > 74.3 µM (inactive) in the assay with SK-MEL-2; > 45.2 µM (inactive) in the assay on SK-OV-3.

Take `O=P1(c2ccccc2)C2=CCC=CC2C(c2ccccc2)N1Cc1ccccc1` (stereo not drawn): the GI50 is 14.7 µM (inactive) in the assay with A549; 17.4 µM (inactive) in the assay with BT-549; 14 µM (inactive) in the assay with EKVX; 20.4 µM (inactive) with HL-60; 16.1 µM (inactive) with IGROV-1; 12.9 µM (inactive) with KM12. Moreover, the GI50 in the assay with M14 is 17.1 µM (inactive); with MCF7, 11.2 µM (inactive); in the assay on MDA-MB-231, 15.9 µM (inactive); with NCI-H460, 13 µM (inactive); in the assay with NCI/ADR-RES it was 14.5 µM (inactive); with OVCAR-5, > 100 µM (inactive). For the same compound, the results for the GI50 in the assay on RPMI-8226, with SK-MEL-2 and with SK-OV-3 were 13.3 µM (inactive), 15.5 µM (inactive) and 17.1 µM (inactive), respectively.

For the compound `c1cc(CSP234N5CCN2CCN3CCN4CC5)ccc1CSP123N4CCN1CCN2CCN3CC4`, the GI50 was > 100 µM (inactive) with A549; > 100 µM (inactive) in the assay on BT-549; > 100 µM (inactive) in the assay with EKVX; 0.465 µM (active) in the assay on HL-60; > 100 µM (inactive) in the assay on IGROV-1; > 100 µM (inactive) in the assay with KM12. Further, the GI50 was > 100 µM (inactive) in the assay with M14; > 100 µM (inactive) in the assay with MCF7; 62.7 µM (inactive) in the assay with MDA-MB-231; > 100 µM (inactive) with NCI-H460; > 100 µM (inactive) in the assay with NCI/ADR-RES; 76.4 µM (inactive) with OVCAR-3. Further, the GI50 is > 100 µM (inactive) in the assay with OVCAR-4; > 100 µM (inactive) with OVCAR-5; 16.4 µM (inactive) in the assay with RPMI-8226; > 100 µM (inactive) in the assay on SK-MEL-28; > 100 µM (inactive) in the assay with SK-MEL-2.

With `N#Cc1c2ccc([N+](=O)[O-])cc2c(=O)n2c1sc1ccccc12`, the GI50 in the assay with A498 was 13.5 µM (inactive); in the assay on A549 it was 12.2 µM (inactive); with BT-549, 19.9 µM (inactive); with HL-60, 19.3 µM (inactive); with KM12, 31.6 µM (inactive); in the assay on MDA-MB-231, 17.2 µM (inactive). In addition, the GI50 is 27.5 µM (inactive) with NCI-H460; 18.4 µM (inactive) in the assay on NCI/ADR-RES; 20.6 µM (inactive) in the assay with OVCAR-4; 9.93 µM (inactive) with RPMI-8226; 17.6 µM (inactive) with SK-MEL-28; 17.3 µM (inactive) with SK-MEL-2.

Consider `O=C1CSC(c2ccc(Cl)cc2)N1c1ccc(Oc2ccc(Cl)cc2)c(Cl)c1` (stereo not drawn), for which the GI50 in the assay with A549 was 16.2 µM (inactive); in the assay with BT-549, 15 µM (inactive); with EKVX, 13.7 µM (inactive); with HL-60 it was 11 µM (inactive); with IGROV-1, 14.8 µM (inactive); in the assay on KM12 it was 15.7 µM (inactive). Moreover, the GI50 with M14 was 16.7 µM (inactive); with MCF7, 21.9 µM (inactive); in the assay with MDA-MB-231 it was 16.4 µM (inactive); in the assay with NCI-H460 it was 18.5 µM (inactive); in the assay with NCI/ADR-RES, 17.4 µM (inactive); in the assay with OVCAR-3, 15 µM (inactive). The GI50 in the assay with OVCAR-4 was 14.7 µM (inactive); in the assay with OVCAR-5 it was 14.2 µM (inactive); with RPMI-8226, 8.95 µM (inactive); in the assay on SK-MEL-28, 17.7 µM (inactive); with SK-MEL-2 it was 16 µM (inactive); in the assay with SK-OV-3, 17.6 µM (inactive).

As to `S=C1C(CCCOCc2ccccc2)C2CCCC23CC2(CCN13)OCCS2` (stereo not drawn), the GI50 with A498, with EKVX, in the assay with HL-60, in the assay on IGROV-1, in the assay with KM12 and in the assay with M14 was > 10 µM (inactive) each time. Moreover, the GI50 in the assay on MCF7, in the assay with MDA-MB-231, in the assay on NCI-H460, in the assay on NCI/ADR-RES, in the assay on OVCAR-3 and in the assay on OVCAR-4 was > 10 µM (inactive) throughout. Further, the GI50 with OVCAR-5, with RPMI-8226, with RXF 393, in the assay on SK-MEL-28, with SK-MEL-2 and with SK-OV-3 was > 10 µM (inactive) throughout.

For the compound `C=CC1(C)OC2(CCN(C(=O)OCC)CC2)OC1C` (stereo not drawn), the GI50 with A498, with A549, with EKVX, in the assay with HL-60, in the assay on IGROV-1 and with KM12 was > 100 µM (inactive) throughout. The GI50 with M14, in the assay on MCF7, in the assay on MDA-MB-231, with NCI-H460, in the assay with NCI/ADR-RES and in the assay with OVCAR-3 was > 100 µM (inactive) throughout. Further, the GI50 in the assay on OVCAR-4, in the assay with OVCAR-5, in the assay with RPMI-8226, with RXF 393, with SK-MEL-28 and in the assay with SK-MEL-2 was > 100 µM (inactive) throughout. For the same compound, the GI50 in the assay on SK-OV-3 was > 100 µM (inactive).
